Laboratory results from patent US20110212484A1, “In Vitro Model of Focal Ischemia” (priority 2008, published 2011).

Tests used:
rat brain slices = assay: In vitro focal ischemia (focal OGD) in brain slices, TTC staining of infarct area; format: cell-based; conditions: 100 μM lidocaine added to OGD media, focally applied 2 hours at 100 μL/min, TTC stain
Description: In order to mimic in vivo focal ischemia in the present in vitro system, oxygen-glucose deprived (OGD) medium was focally applied to a small area (0.25-0.5 mm wide or 5-10% of cortex) within the cortex of a brain slice, or within a slice of liver or heart tissue. […] Oxygen was displaced from the media by bubbling with 95% N2 and 5% CO2. […] Nozzle of the microperfusion system was made from a 23 gauge stainless steel tube and was mounted to a micromanipulator in order to ensure accurate placement. Using the micromanipulator the nozzle was lowered until it was just touching the surface of the slice. […] In FIG. 1C, OGD solution was focally applied to the slice for 1 hour. […] In FIG. 1D, OGD solution was focally applied to the slice for 2 hours.

[1] = system: cortical neurons adjacent to the region of focal OGD perfusion; assay: Penumbra region of focal ischemia: intracellular recordings of membrane potential adjacent to the focal OGD perfusion; format: cell-based, rat
Description: In order to mimic in vivo focal ischemia in the present in vitro system, oxygen-glucose deprived (OGD) medium was focally applied to a small area (0.25-0.5 mm wide or 5-10% of cortex) within the cortex of a brain slice, or within a slice of liver or heart tissue. […] The OGD medium for liver and heart slices was deoxygenated, glucose-free Krebs solution. Oxygen was displaced from the media by bubbling with 95% N2 and 5% CO2. […] Nozzle of the microperfusion system was made from a 23 gauge stainless steel tube and was mounted to a micromanipulator in order to ensure accurate placement. Using the micromanipulator the nozzle was lowered until it was just touching the surface of the slice.
OGD solution was focally perfused onto rat brain slices bathed in oxygenated aCSF solution. […] A representative recording of membrane potential is depicted in FIG. 5A. Focal perfusion of OGD caused neurons outside the region of perfusion to progressively depolarize. When edaravone (100 μM) was added to the OGD media this depolarization was attenuated. This is reflected in the mean data (FIG. 5B). Percentage neuronal survival after 75 minutes is reflected in FIG. 5C. Neurons were considered “dead” if they became irreversibly depolarized to approximately 0 mV. The addition of 100 μM edaravone doubled neuronal survival from OGD. […] In FIG. 5 the * denotes p<0.05.

cortical neurons = assay: Focal glutamate perfusion of brain slices, intracellular recordings of membrane potential; conditions: aCSF containing 20 mM glutamate focally applied at 100 μL/min, neurons within the region of focal perfusion

Q: `CCN(CC)CC(=O)Nc1c(C)cccc1C` [Lidocaine, lidocaine] was tested. Which “area of cell death caused by OGD” value (rat brain slices) did it give?
A: Its value is “reduced the area of cell death”.

Q: For `CC1=NN(c2ccccc2)C(=O)C1` [edaravone], which “progressive depolarization of neurons outside the region of perfusion” value ([1]; 100 μM edaravone added to OGD media, approximately 0.9 mm from focal perfusion) is on record?
A: The value was “attenuated”.

Q: What about the “neuronal survival from OGD” value ([1]; 100 μM edaravone, after 75 minutes, penumbra region) of the same molecule?
A: The value was “doubled”.

Q: With `N[C@@H](CCC(=O)O)C(=O)O` [glutamate] as the molecule, how does the “membrane potential of neuron (depolarization)” value (cortical neurons) read?
A: The value was “caused a rapid depolarization of the neuron”.
